From patent US20220154189A1, “COMPOSITIONS AND METHODS FOR THE TREATMENT OF KRAS ASSOCIATED DISEASES OR DISORDERS” (Dicerna Pharmaceuticals, Inc., priority 2019, published 2022)

Key:
Pan02 tumors [1] = assay: tumor growth inhibition, Pan02 tumors in C57BL/6 mice; assay type: in vivo, mouse
Protocol: (§1) 6 to 8 week old immunocompetent or immunocompromised mice (C57BL/6/Nude) were injected subcutaneously with 2×10^6 Pan02 (mouse pancreatic cell line) or 5×10^6 Panc1 (human pancreatic cell line) tumor cells under the right shoulder. Tumor volume was measured every 2-3 days a week to monitor tumor growth. Dosing was initiated when the tumors reached about 200 mm^3. For tumor growth inhibition studies, animals were randomized and assigned to different cohorts and subjected to dosing cycles. KRAS1-formulated LNP (“KRAS/LNP”) or Placebo (scrambled KRAS dsRNAi) formulated LNP was given intravenously via lateral tail vein at a total volume of 10 ml/kg. Immuno-modulatory agents (CSF1 antibody, TGF-β inhibitor, or checkpoint inhibitors) were given intraperitoneally or orally at a volume of 10 ml/kg. Trametinib (MEK inhibitor) was given orally at a total volume of 10 ml/kg.
(§2) Mouse pancreatic cell line Pan02 was obtained from NCI, and human pancreatic cell line Panc1 cells were obtained from ATCC (Manassas, Va.) and grown in RPMI/DMEM medium supplemented with 10% FBS. Pan02 is a murine PDAC cell line with KRAS G12D mutation. Panc1 is a human PDAC cell line with KRAS G1D mutation.
To see if the KRAS knockdown observed could be translated into growth inhibition, Pan02 tumors were implanted as described above, and when they reached the right sizes (e.g., about 200 mm^3), they were sorted and treated with KRAS/LNP or Placebo/LNP (cKras) at 10 mpk once a week for 3 weeks, and the tumor growth was monitored.

Panc1 tumors = assay: tumor growth inhibition, human PDAC Panc1 tumors in nude mice; assay type: in vivo; conditions: gemcitabine 50 mpk, several rounds
Protocol: as §1
as §2, with “[…] mutation. […]” for “G1D mutation.”

Pan02 tumors [2] = assay: qPCR of tumor microenvironment and stromal activation marker mRNAs in Pan02 tumors; assay type: in vivo, mouse
Protocol: To see if a single KRAS/LNP treatment would lead to modulation of the tumor microenvironment, samples from the study described in Example 3 (FIGS. 5A-B) were analyzed for certain T-cell markers (CD8 and FoxP3) and chemokines (CXCL1). FoxP3 is a marker for immunosuppressive T cells (Tregs), which play an important role in regulating or suppressing other cells of the immune system. CXCL1 is a chemokine that actively recruits suppressive molecules such as Tregs and myeloid-derived suppressor cells to the tumor microenvironment.
To see if continuous KRAS inhibition would lead to modulation of the tumor microenvironment, Pan02 tumors from the efficacy study described in Example 3 (FIG. 6) were collected 24 hours after the last dose and subjected to qPCR to measure mRNAs of immune cell markers (CD8, FoxP3), immune suppressive cytokines (CXCL1, CXCL5, and IL10), immune checkpoints (PD-L1) or stromal activation markers (TGF-0, Axin2, ROBO1, and CSF3). […] This in turn led to down-regulation of several key suppressive molecules (FoxP3, CXCL1, and CXCL5). […]
A similar study was repeated in Pan02 tumors as well. […] In this case, tumors were collected and analyzed for the mRNA markers that contribute to modulation of the tumor microenvironment and stromal activation.

Cd274 (PD-L1) mRNA = assay: mRNA analysis of Cd274 (PD-L1) in Panc1 tumors; assay type: in vivo, human; conditions: MEKi+KRAS DsiRNA treatment
Protocol: (§3) To see how trametinib performed in human PDAC, Panc1 tumors were implanted as described above and treated with trametinib (3 mg/kg/dose) as shown in FIG. 12A. Tumor measurements were taken throughout the entire study period to monitor the tumor growth. […] Tumors were collected before and after KRAS/LNP treatments for mRNA analysis.

Pan02 tumors [3] = assay: FoxP3 and CD8 immunohistochemistry of Pan02 tumors; assay type: in vivo, mouse; conditions: KRAS DsiRNA combined with an MEK inhibitor
KRAS = assay: mRNA analysis of KRAS in trametinib-resistant Panc1 tumors; assay type: in vivo, human; conditions: trametinib-resistant Panc1 tumors after KRAS/LNP 5 mpk (qdx3), compared to resistant tumors without KRAS/LNP
Protocol: as §3

KRAS mRNA [4] = assay: in vitro screen of KRAS DsiRNA constructs, KRAS mRNA expression in MIA PaCa2 cells; assay type: cell-based, human; conditions: lipofectamine, 1 nM and 0.1 nM, 24 hours
Excerpt: A nucleic acid inhibitor molecule that targets the KRAS gene (KRAS1) was constructed. First, several 25/27-mer KRAS DsiRNAs (with no modifications except for three methyls on the 3′ end of the guide strand) were selected. These constructs were then converted into a nicked-tetraloop format, using the U/GG convention as 22-mers, such that bases came off the guide strand starting from the 5′ end. These DsiRNAs were screened in human pancreatic carcinoma (MIA PaCa2) cells in vitro using lipofectamine at 1 nM and 0.1 nM concentrations of each construct to determine the potency.

KRAS mRNA [5] = assay: KRAS mRNA expression in mouse tumor models using MIA PaCa2 and LS411N tumor cells; assay type: in vivo, human; conditions: MIA PaCa 2 and LS411N tumor models, LNP-formulated tetraloops, 3 mg/kg daily for three days, 24 hours after
Protocol: FIG. 3B is a column scatter plot showing KRAS mRNA expression levels in a mouse tumor model using MIA PaCa2 tumor cells 24 hours after three-day daily administration of 3 mg/kg of KRAS nucleic acid inhibitor molecules as described in Example 1 and shown in FIG. 3A.
FIG. 3C is a column scatter plot showing KRAS mRNA expression levels in a mouse tumor model using MIA LS411N tumor cells 24 hours after three-day daily administration of 3 mg/kg of KRAS nucleic acid inhibitor molecules as described in Example 1 and shown in FIG. 3A.
The tetraloop sequences were tested in tumor models using MIA PaCa 2 and colon cancer LS411N cell lines. The best two from this screen (KRAS-465T and KRAS-446T) were then further modified to have a 4′-oxymethylphosphonate modification on the nucleotide at the 5′-end of the antisense strand (KRAS-465T/MOP and KRAS-446T/MOP). The sense strand of KRAS-465T/MOP contains SEQ ID NO: 13 (5′-[…]-3′), and the antisense strand of KRAS-465T/MOP contains SEQ ID NO: 14 (3′-[…]-5′, wherein underlining indicates a 4′-oxymethylphosphonate modification). The sense strand of KRAS-446T/MOP contains SEQ ID NO: 15 (5′-[…]-3′), and the antisense strand of KRAS-446T/MOP contains SEQ ID NO: 16 (3′-[…]-5′, wherein underlining indicates a 4′-oxymethylphosphonate modification).

[6] = Pan02 tumors, gemcitabine treatment without KRAS/LNP
[7] = Pan02 tumors, continuous KRAS inhibition (10 mpk weekly x3), 24 hours after last dose
[8] = Pan02 tumors, single KRAS/LNP treatment 10 mg/kg, 24 hours after last dose

Cc1cccc(-c2nn3c(c2-c2ccnc4ccc(C(N)=O)cc24)CCC3)n1 [galunisertib]
tumor growth inhibition (Pan02 tumors [1]; orally 75 mpk (BID×2/cycle) for 2 weeks, vs Vehicle): about 50%

Nc1ccn([C@@H]2O[C@H](CO)[C@@H](O)C2(F)F)c(=O)n1 [gemcitabine, reference compound]
tumor growth, response to treatment (Panc1 tumors): responded nicely at the beginning, they became resistant after several rounds of treatment | tumor growth, response to treatment (Pan02 tumors [1]; continuous gemcitabine treatment): became resistant | CXCL1 mRNA levels (Pan02 tumors [2]; Pan02 tumors treated with gemcitabine until resistant): increased | Axin2 mRNA (stromal activation marker) (Pan02 tumors [2]; [6]): lower | ROBO1 mRNA (stromal activation marker) (Pan02 tumors [2]; [6]): lower | TGF-β mRNA (stromal activation marker) (Pan02 tumors [2]; [6]): lower

KRAS1: tetraloop construct with 4′-oxymethylphosphonate at nucleotide 1 of the antisense strand; sense SEQ ID NO: 13, antisense SEQ ID NO: 14 (sense CUAAAUCAUUUGAAGAUAUAGCAGCCGAAAGGCUGC; antisense NAUAUCUUCAAAUGAUUUAGGG; tetraloop DsiRNA, 4'-oxymethylphosphonate on antisense 5'-terminal U, other modifications not given here)
Cd274 (PD-L1) mRNA levels (Cd274 (PD-L1) mRNA): increased | CD8 expression by immunohistochemistry (Pan02 tumors [3]): increased | FoxP3 expression by immunohistochemistry (Pan02 tumors [3]): reduced | KRAS knockdown (KRAS): 40-50% | tumor growth (Pan02 tumors [1]; 10 mpk once a week for 3 weeks, i.v., vs Placebo/LNP): complete growth inhibition | Axin2 mRNA (stromal activation marker) (Pan02 tumors [2]; [7]): slightly increased | CSF3 mRNA (stromal activation marker) (Pan02 tumors [2]; [7]): slightly increased | CXCL1 mRNA (Pan02 tumors [2]; [7]): down-regulation | CXCL5 mRNA (Pan02 tumors [2]; [7]): down-regulation | Cd8 mRNA (Pan02 tumors [2]; [7]): increased | Cd274 (PD-L1) mRNA (Pan02 tumors [2]; [7]): increased | FoxP3 mRNA (Pan02 tumors [2]; [7]): down-regulation | ROBO1 mRNA (stromal activation marker) (Pan02 tumors [2]; [7]): slightly increased | TGF-0 mRNA (stromal activation marker) (Pan02 tumors [2]; [7]): slightly increased | CD8 mRNA expression level (Pan02 tumors [2]; [8]): unchanged | CXCL1 mRNA expression level (Pan02 tumors [2]; [8]): significantly decreased | FoxP3 mRNA expression level (Pan02 tumors [2]; [8]): significantly decreased | CXCL1 mRNA levels (Pan02 tumors [2]; gemcitabine-resistant Pan02 tumors, single KRAS1 treatment): not brought down to baseline

KRAS-194: 25/27-mer KRAS DsiRNA; sense strand SEQ ID NO: 1, antisense strand SEQ ID NO: 2 (sense GGCCUGCUGAAAAUGACUGAAUATA; antisense UAUAUUCAGUCAUUUUCAGCAGGCCUC; Dicer-substrate siRNA, chemical modification pattern not given here)
KRAS mRNA expression, ranking of potency in the in vitro screen (KRAS mRNA [4]): best three

KRAS-446: 25/27-mer KRAS DsiRNA; sense strand SEQ ID NO: 5, antisense strand SEQ ID NO: 6 (sense GUAUUUGCCAUAAAUAAUACUAAAT; antisense AUUUAGUAUUAUUUAUGGCAAAUACAC; Dicer-substrate siRNA, chemical modification pattern not given here)
KRAS mRNA expression, ranking of potency in the in vitro screen (KRAS mRNA [4]): best three

KRAS-446T: KRAS tetraloop construct; sense strand SEQ ID NO: 15, antisense strand SEQ ID NO: 19 (sense GUAUUUGCCAUAAAUAAUAAGCAGCCGAAAGGCUGC; antisense UUAUUAUUUAUGGCAAAUACGG; sense strand forms tetraloop hairpin, modification pattern not given here)
KRAS mRNA expression, ranking in the tumor model screen (KRAS mRNA [5]): best two

KRAS-465: 25/27-mer KRAS DsiRNA; sense strand SEQ ID NO: 3, antisense strand SEQ ID NO: 4 (sense CUAAAUCAUUUGAAGAUAUUCACCA; antisense UGGUGAAUAUCUUCAAAUGAUUUAGUA; Dicer-substrate siRNA, chemical modification pattern not given here)
KRAS mRNA expression, ranking of potency in the in vitro screen (KRAS mRNA [4]): best three

KRAS-465T: KRAS tetraloop construct; sense strand SEQ ID NO: 13, antisense strand SEQ ID NO: 18 (sense CUAAAUCAUUUGAAGAUAUAGCAGCCGAAAGGCUGC; antisense UAUAUCUUCAAAUGAUUUAGGG; sense strand forms tetraloop hairpin, modification pattern not given here)
KRAS mRNA expression, ranking in the tumor model screen (KRAS mRNA [5]): best two
